In publication PMC5402304, “Oxoaporphine Metal Complexes (Co^II, Ni^II, Zn^II) with High Antitumor Activity by Inducing Mitochondria-Mediated Apoptosis and S-phase Arrest in HepG2” (Scientific Reports, 2017):

Legend:
Type in all cases: cell-based, human
T-24 = test: MTT cytotoxicity assay, T-24
Description: (§1) The in vitro cytotoxicity of OD, 1–3 and the corresponding metal salts were determined by MTT assay towards a panel of human tumor cells including HepG2, T-24, BEL-7404, MGC80-3, SK-OV-3/DDP and normal HL-7702 cells. As the positive control, cisplatin was dissolved at a concentration of 1 mM in 0.154 M NaCl[32].
(§2) The human tumor cell lines (BEL-7404, HepG2, MGC80–3, T-24, SK-OV-3/DDP and HeLa cells) and the human normal liver cell line HL-7702 were obtained from Shanghai Cell Bank in Chinese Academy of Sciences. Cells were cultured in Dulbecco’s modified Eagle’s medium (DMEM) or RPMI-1640 medium, which supplemented with 10% fetal bovine serum (FBS) and 100 U/mL penicillin and streptomycin. Cells were cultured at 37 °C in a humidified atmosphere with 5% CO2/95% air. Tested compounds (2.0 mM) were prepared as DMSO stock solution before they were diluted to working concentrations by PBS buffer (containing 0.5% DMSO), while cisplatin dissolved in 0.9% sodium chloride solution was used as positive controls.
(§3) Cells in their logarithmic phase were seeded in 96-well plates with 5.5 × 10^3/180 μL per well for 24 h. Then 20 μL of compounds at various concentrations were added to each well to achieve final concentrations of 1.25, 2.5, 5.0, 10.0, and 20.0 μM. All the cells were incubated with test compounds for another 48 h before MTT assay. Control wells contained media with 0.5% DMSO. After 48 h of cultivation, 10 μL of MTT (5 mg/mL in PBS) was added to each well, and cells were incubated at 37 °C for 6 h. The contents in the wells were pipetted out carefully, and the formazan crystals formed were dissolved in 100 μL of DMSO, and the absorbance was measured by enzyme labeling instrument with 490 nm/630 nm double wavelength measurement. The IC50 value was defined as a drug concentration killing 50% cells in comparison with untreated controls, which was calculated by the Bliss method (n = 5). All tests were repeated in at least three independent trials.

SK-OV-3/DDP = test: MTT cytotoxicity assay, SK-OV-3/DDP; conditions: 48 h
Description: as §1, §2, §3

HepG2 = test: Cell apoptosis assay by flow cytometry, Annexin V-FITC/PI; conditions: HepG2, 5.0 μM, 24 h
Description: The quantitative analysis of apoptotic HepG2 induced by 1–3 (1.0, 2.0 and 5.0 μM) and their corresponding metal salts (5.0 μM) after 24 h treatment, were investigated by flow cytometry and Annexin V-FITC/PI double staining. As depicted in Figs 7 and S6, 1–3 caused a significant increase in apoptotic cells comparing to the untreated cells.
Cell cycle progression and apoptosis were determined by flow cytometric analysis. (a) Cell cycle arrest assay: HepG2 cells in their logarithmic phase were plated into 50 mL plates at a final density of 5−6 × 10^6 cells/well overnight, then they were treated with various doses (0.25, 0.5 and 1.0 μM) of 1–3 for another 24 h. Cells were trypsinized, collected, and fixed in ice-cold 75% ethanol at −20 °C overnight. After centrifugation, the fixed cells were rinsed with ice-cold phosphate buffered saline (PBS), and resuspended in 0.5 mL of PBS containing 100 μg/mL RNase, 50 μg/mL propidium iodide (PI) in the dark for 5−10 min. The cell cycle distribution was analyzed by FACS Calibur flow cytometer (BD) and calculated using ModFIT LT software. (b) Apoptosis assay: 1 × 10^5 HepG2 cells were plated in 6-well plates, after incubation for 24 h with complexes 1–3 at 1.0, 2.0 and 5.0 μM, cells were collected, and Apoptosis Detection kit FITC Annexin V was used to analyze the cell apoptosis according to the manufacturer’s instructions.

[Zn(OD)2(H2O)2] (ClO4)2 [Complex 3] was tested, and the inhibitive ratio (T-24; T-24, 20 μmol/L, 48 h) was 84.16±0.76%, the IC50 (T-24; T-24, 48 h, MTT) was 510 ± 170 nM and the IC50 (SK-OV-3/DDP; SK-OV-3/DDP, MTT) was 570 ± 70 nM. For the same substance, the inhibitive ratio (SK-OV-3/DDP; SKOV-3/DDP, 20 μmol/L) was 70.80±1.69% and the “population of apoptotic cells” value (HepG2) was 25.3%.
